Data as given in ChEMBL document CHEMBL5356948, “Microtubule stabilising peptides: new paradigm towards management of neuronal disorders” (RSC Med Chem, 2023).
Peptide text beside a SMILES is read from it.

Assays:
Tubulin = assay: Binding affinity to microtubules (unknown origin) assessed as dissociation constant; type: protein-complex assay, Homo sapiens
Tubulin (Homo sapiens) [1] = biological target: T1, Tubulin (Homo sapiens) (UniProt P68371+Q9H4B7+P0DPH7+P68366+Q13509+Q71U36+P04350+Q3ZCM7+P07437+P68363+Q9BQE3+Q6PEY2+Q13885+Q9BVA1+Q9BUF5); assay: Binding affinity to tubulin (unknown origin) assessed as binding constant by […] analysis; type: protein-complex assay
Tubulin (Homo sapiens) [2] = biological target: T1, Tubulin (Homo sapiens); assay: Binding affinity to microtubules (unknown origin) assessed as binding constant by turbidity assay; type: protein-complex assay
Tubulin (Homo sapiens) [3] = biological target: T1, Tubulin (Homo sapiens); assay: Binding affinity to tubulin (unknown origin) assessed as binding constant; type: protein-complex assay
[4] = Ratio of drug concentration in CSF to plasma in Sprague-Dawley rat at 15 mg/kg,IV measured after 1 hrs; type: ADME, organism-based; settings: CSF and plasma

CC[C@H](C)[C@H](NC(=O)[C@H](CCC(N)=O)NC(=O)[C@@H](NC(=O)[C@H](CO)NC(=O)CNC(=O)CNC(=O)CNC(=O)[C@@H]1CCCN1C(=O)[C@@H](NC(=O)[C@H](Cc1c[nH]cn1)NC(=O)[C@H](CCCCN)NC(=O)[C@H](CCCCN)NC(=O)CNC(=O)CNC(=O)CNC(=O)[C@@H](N)CS)C(C)C)C(C)C)C(=O)N[C@H](C(=O)N[C@@H](Cc1ccc(O)cc1)C(=O)N[C@@H](CCCCN)C(=O)N1CCC[C@H]1C(=O)N[C@H](C(=O)N[C@@H](CC(=O)O)C(=O)N[C@@H](CC(C)C)C(=O)O)C(C)C)C(C)C
Kd (Tubulin): 64.1 µM

CC[C@H](C)[C@H](NC(=O)[C@H](CO)NC(=O)[C@@H](NC(=O)[C@H](C)NC(=O)[C@@H](N)CC(N)=O)C(C)C)C(=O)N[C@@H](CCC(N)=O)C(=O)O (H-NAVSIQ-OH)
Activity (Tubulin (Homo sapiens) [1]): 1.14 10^3/M

CC(C)C[C@H](NC(=O)[C@H](Cc1ccccc1)NC(=O)[C@@H](NC(=O)[C@H](CCC(=O)O)NC(=O)[C@@H](N)CC(N)=O)C(C)C)C(=O)N[C@@H](CC(=O)O)C(=O)N[C@H](C(=O)N[C@@H](CCC(N)=O)C(=O)O)[C@@H](C)O (H-NEVFLDTQ-OH)
Kb (Tubulin (Homo sapiens) [2]): 2.65 10^4/M

CC(C)C[C@H](NC(=O)[C@@H](N)CO)C(=O)N[C@@H](CCCCN)C(=O)N1CCC[C@H]1C(=O)N[C@@H](C)C(=O)N[C@@H](C)C(=O)N[C@@H](CC(N)=O)C(=O)N[C@@H](CC(C)C)C(=O)N1CCC[C@H]1C(=O)N[C@@H](CC(C)C)C(=O)N[C@@H](CCCNC(=N)N)C(=O)N[C@@H](Cc1ccccc1)C(=O)O (H-SLKPAANLPLRF-OH)
Kb (Tubulin (Homo sapiens) [3]): 2.35 10^5/M

CC[C@H](C)[C@H](NC(=O)[C@H](CO)NC(=O)[C@@H](NC(=O)[C@@H]1CCCN1C(=O)[C@H](C)NC(=O)[C@@H](N)CC(N)=O)C(C)C)C(=O)N1CCC[C@H]1C(=O)N[C@@H](CCC(N)=O)C(=O)O [DAVUNETIDE]
Kp at 1 h [4]: 0.138
